Laboratory results taken from the CheMixHub viscosity set.

Assay: xn = mol fraction of the nth substance listed

CC(C)CCCC(C)CCCC(C)CCCCC(C)CCCC(C)CCCC(C)C (stereo unspecified) + CCCCCCCC
viscosity [mPa·s], 100 kPa
Conditions	x1 = 0.238	x1 = 0.492	x1 = 0.709
293.15 K	2.43	7.43	15.6
313.15 K	1.6	4.27	7.68

[Br-].[Br-].[Br-].[Br-].[Sn+4] + Oc1ccccc1
313.15 K, 101 kPa
Conditions	viscosity [mPa·s]
x1 = 0.1	4.21
x1 = 0.2	3.817
x1 = 0.3	3.351
x1 = 0.4	3.034
x1 = 0.5	2.762
x1 = 0.6	2.56
x1 = 0.7	2.387
x1 = 0.8	2.262
x1 = 0.9	2.137

O=C(O)CCC(=O)O + CCCCO
101 kPa
Conditions	viscosity [mPa·s]
308.15 K, x1 = 0.0162	2.167
313.15 K, x1 = 0.0162	1.91
318.15 K, x1 = 0.0162	1.704
318.15 K, x1 = 0.017	1.704
318.15 K, x1 = 0.035	1.848
318.15 K, x1 = 0.0435	1.943
318.15 K, x1 = 0.047	1.943
323.15 K, x1 = 0.0162	1.51
323.15 K, x1 = 0.0435	1.726

O=Cc1ccccc1 + CCO
298.15 K, 101.33 kPa
Conditions	viscosity [mPa·s]
x1 = 0.05414	1.092
x1 = 0.08518	1.052
x1 = 0.1016	1.05
x1 = 0.1182	1.051
x1 = 0.1595	1.031
x1 = 0.1727	1.041
x1 = 0.3372	1.158
x1 = 0.6248	1.308
x1 = 0.8076	1.362

O=C(O)c1ccccc1C(=O)O + CO
viscosity [mPa·s]
Conditions	308.15 K	313.15 K	318.15 K	323.15 K
101 kPa, x1 = 0.0453	0.916	–	–	0.7018
101 kPa, x1 = 0.0538	1.001	–	–	0.79
101 kPa, x1 = 0.0598	1.085	–	–	0.8526
101 kPa, x1 = 0.0666	1.226	–	–	0.906
101.33 kPa, x1 = 0.0453	0.916	0.8445	0.777	0.718
101.33 kPa, x1 = 0.06	1.085	1.009	0.9326	0.8526

CCCCCCCCCCCCO + CCCCCCCCCCO
viscosity [mPa·s], 101.8 kPa
Conditions	x2 = 0.1151	x2 = 0.3347	x2 = 0.5407	x2 = 0.7346	x2 = 0.9162
298.15 K	16.35	15.13	14.02	13.03	12.15
308.15 K	11.08	10.31	9.627	8.957	8.384
318.15 K	7.752	7.245	6.775	6.357	5.973

CCCCCCCCCCCCO + CCCCCCCCCCCO
viscosity [mPa·s], 101.8 kPa
Conditions	x2 = 0.105	x2 = 0.3165	x2 = 0.5196	x2 = 0.7165	x2 = 0.9076
298.15 K	16.69	16.05	15.53	15	14.51
308.15 K	11.29	10.91	10.58	10.23	9.905
318.15 K	7.895	7.633	7.418	7.19	6.977

OCCOCCO + CC(C)=O
298.1 K, 101 kPa
Conditions	viscosity [mPa·s]
x1 = 0.2	0.682
x1 = 0.4	1.669
x1 = 0.5	2.655
x1 = 0.6	4.301
x1 = 0.8	11.1

Cc1ccc(C)cc1 + C1CCCCC1
101 kPa
Conditions	viscosity [mPa·s]
303 K, x1 = 0.1025	0.7341
303 K, x1 = 0.2016	0.6783
303 K, x1 = 0.2982	0.6363
303 K, x1 = 0.402	0.6131
303 K, x1 = 0.4944	0.5946
303 K, x1 = 0.5992	0.5858
303 K, x1 = 0.7997	0.5735
303 K, x1 = 0.8951	0.5721
303.15 K, x2 = 0.1016	0.5673
303.15 K, x2 = 0.1997	0.572
303.15 K, x2 = 0.2851	0.5782
303.15 K, x2 = 0.3934	0.591
303.15 K, x2 = 0.4966	0.611
303.15 K, x2 = 0.5961	0.6362
303.15 K, x2 = 0.6976	0.6682
303.15 K, x2 = 0.7954	0.7086
303.15 K, x2 = 0.8986	0.763
313 K, x1 = 0.1025	0.6343
313 K, x1 = 0.2016	0.5965
313 K, x1 = 0.2982	0.5693
313 K, x1 = 0.402	0.5417
313 K, x1 = 0.4944	0.5288
313 K, x1 = 0.5992	0.5165
313 K, x1 = 0.6952	0.5142
313 K, x1 = 0.7997	0.5159
323 K, x1 = 0.1025	0.54
323 K, x1 = 0.2016	0.5237
323 K, x1 = 0.2982	0.4976
323 K, x1 = 0.402	0.4831
323 K, x1 = 0.4944	0.4765
323 K, x1 = 0.6952	0.462
323 K, x1 = 0.7997	0.4612
323 K, x1 = 0.8951	0.4608

c1ccc(Nc2ccccc2)cc1 + CC(=O)O
323.15 K, 101.33 kPa
Conditions	viscosity [mPa·s]
x1 = 0.1031	1.083
x1 = 0.2023	1.242
x1 = 0.4039	2.267
x1 = 0.5079	2.799
x1 = 0.6113	3.35
x1 = 0.6724	3.714
x1 = 0.7895	4.486

COC(=O)OCC(F)(F)F + O=C1OCCO1
313.15 K, 100 kPa
Conditions	viscosity [mPa·s]
x2 = 0.1011	0.826
x2 = 0.1994	0.92
x2 = 0.3006	1.03
x2 = 0.3997	1.142
x2 = 0.5004	1.264
x2 = 0.5989	1.39
x2 = 0.7023	1.524
x2 = 0.7988	1.652
x2 = 0.9	1.786

O=C(O)c1ccccc1C(=O)O + CCCCO
viscosity [mPa·s]
Conditions	308.15 K	313.15 K	318.15 K	323.15 K
101 kPa, x1 = 0.021	–	–	1.806	1.604
101 kPa, x1 = 0.032	–	–	1.928	1.712
101 kPa, x1 = 0.039	–	–	1.985	1.78
101.33 kPa, x1 = 0.021	2.302	2.033	1.806	1.604
101.33 kPa, x1 = 0.032	–	2.18	1.928	1.712

O=[N+]([O-])[O-].O=[N+]([O-])[O-].[Sr+2] + O
viscosity [mPa·s], 100 kPa
Conditions	x1 = 0.004	x1 = 0.009	x1 = 0.02	x1 = 0.04	x1 = 0.05
298.15 K	0.9435	1.029	1.226	1.628	2.52
323.15 K	0.589	0.639	0.775	1.012	1.524
